Reference: paper PMC2213507 (The Journal of Experimental Medicine, 2000)
Peptide text beside a SMILES is read from it.

Target: HLA-A*0201 (Homo sapiens, UniProt P04439, D140Y/D185E/D98H/E176V/E277Q/G131W/G231S/I119V/I121R/I166T/I218V/L300P/L318F/N151K/N90K/P208A/P217A/Q86G/Q94H/R138H/R169H/T345S)
Assay: HLA-A*0201 peptide-binding assay

| SMILES | IC50 [nM] |
| --- | --- |
| CC(C)C[C@H](NC(=O)[C@H](CO)NC(=O)[C@H](CCCNC(=N)N)NC(=O)[C@@H](NC(=O)[C@H](Cc1ccc(O)cc1)NC(=O)[C@@H](NC(=O)[C@H](CC(=O)O)NC(=O)[C@H](CC(C)C)NC(=O)CN)[C@@H](C)OP(=O)(O)O)C(C)C)C(=O)O [GLDpTYVRSL] (HELM PEPTIDE1{G.L.D.[C[C@@H](OP(=O)(O)O)[C@H](N[*:1])C(=O)[*:2]].Y.V.R.S.L}$$$$V2.0) | 67 |
| CC(C)C[C@H](NC(=O)[C@H](CO)NC(=O)[C@H](CCCNC(=N)N)NC(=O)[C@@H](NC(=O)[C@H](Cc1ccc(O)cc1)NC(=O)[C@H](COP(=O)(O)O)NC(=O)[C@H](CC(=O)O)NC(=O)[C@H](CC(C)C)NC(=O)CN)C(C)C)C(=O)O [GLDpSYVRSL] (HELM PEPTIDE1{G.L.D.[O=C([C@H](COP(=O)(O)O)N[*:1])[*:2]].Y.V.R.S.L}$$$$V2.0) | 58 |
| CC(C)C[C@H](NC(=O)[C@H](CO)NC(=O)[C@H](CCCNC(=N)N)NC(=O)[C@@H](NC(=O)[C@H](Cc1ccc(O)cc1)NC(=O)[C@H](Cc1ccc(OP(=O)(O)O)cc1)NC(=O)[C@H](CC(=O)O)NC(=O)[C@H](CC(C)C)NC(=O)CN)C(C)C)C(=O)O [GLDpYYVRSL] (HELM PEPTIDE1{G.L.D.[O=C([C@H](Cc1ccc(OP(=O)(O)O)cc1)N[*:1])[*:2]].Y.V.R.S.L}$$$$V2.0) | 211 |
